Here are results for 64 molecules from PubChem BioAssay AID463199 (Broad Institute, 2010).

The source made the active and inactive calls.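 How the source made its calls: active means AC50, the dose giving half-maximal effect, exceeds a fixed cutoff for a compound that rescues yeast growth under heat; inactive means the rest, inconclusive results apart.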

The subject of the experiment is S. cerevisiae Burl-1 ts mutant growth, BacTiter-Glo, 38.5C 24 h. The experiment is described as follows: growth induction of Burl-1 ts yeast mutant, dose response, counter-screen for SUMOylation pathway inhibitor project, whole organism, S. cerevisiae, luminescence (AID 463199).
`Oc1ccccc1-c1cc(C(F)(F)C(F)F)[nH]n1`: the AC50 (usually the concentration giving half of the maximal activity seen) was > 42 µM (inactive). For `CC1(C)CC(=O)C(C=Nc2ccc(O)c(N=CC3=C(O)CC(C)(C)CC3=O)c2)=C(O)C1`, the AC50 is > 42 µM (inactive). To `N#C/C(=C\c1c(N(Cc2ccccc2)Cc2ccccc2)nc2ccccn2c1=O)C(N)=O` belongs > 42 µM (inactive); to `Cc1cccc(/C=N/NC(=O)Cc2cccs2)c1`, > 42 µM (inactive). To `CN(C(=O)c1cncc(Br)c1)C1C2CC3CC(C2)CC1C3` (centres undefined) belongs 8.94 µM. To `CN(C(=O)CSc1nnc(-c2cccc(F)c2)n1N)C1CCS(=O)(=O)C1` (centres undefined) belongs > 42 µM (inactive).

As to `CCCc1ccccc1OCCNC(C)=O`, the AC50 is > 42 µM (inactive).

Regarding `CC/C(=N\NC(=O)c1nnn(-c2nonc2N)c1-c1cccs1)c1ccccc1`, the AC50 is > 42 µM (inactive). To `COC(=O)c1cc(N=Nc2c(C)[nH]c3ccccc23)cc(C(=O)OC)c1` belongs > 42 µM (inactive). To `COc1ccc(C(=O)CSc2nnc(CNC(=O)c3ccccc3)n2C)cc1` belongs > 42 µM (inactive); to `CCCSc1nc(=O)n2cccc(C)c2n1`, > 42 µM (inactive); to `CS(=O)(=O)NCc1ccc(C(=O)NC2CCCCC2)cc1`, > 42 µM (inactive). The result for `COc1ccccc1CC(=O)N1CCOCC1` reads > 42 µM (inactive). For `COc1ccc(/C=C(/C#N)S(=O)(=O)c2ccc(C)cc2)cc1`, the AC50 was > 21 µM (inactive). The result for `CCC(C)NC(=O)CSc1nnc(-c2cc(-c3ccc(C)cc3)nc3ccccc23)n1N` (centres undefined) reads > 42 µM (inactive); that for `CCOc1ccc(NC(=O)Nc2ccc3nsnc3c2)cc1`, > 42 µM (inactive).

Turning to `O=c1c2ccccc2ncn1Cc1ccc(Cl)cc1`, the AC50 is > 42 µM (inactive). The result for `CSCCC(NC(=O)c1ccco1)C(=O)N1CCN(Cc2ccccc2)CC1` (centres undefined) reads > 42 µM (inactive); that for `Cc1sc(NC(=O)c2ccco2)c(C(c2ccc(F)cc2)N2CCN(C)CC2)c1C` (centres undefined), > 42 µM (inactive); that for `O=c1[nH]nc(Cc2ccc(-c3ccccc3Cl)o2)c2ccccc12`, > 42 µM (inactive).

For the molecule `O=C(NNC(=O)c1ccc(-n2cncn2)c([N+](=O)[O-])c1)c1ccc(Cl)cc1`, the AC50 was > 42 µM (inactive). Take `O=C(CN1CCN(C(=O)c2ccccc2)CC1)Nc1ncc(Br)cc1Br`: the AC50 is > 42 µM (inactive). For the molecule `Cc1ccc(O)c(C)c1`, the AC50 is > 42 µM (inactive). The result for `CCN1C(=S)N[C@@H](c2cccs2)C(C(=O)OC)=C1C` reads > 42 µM (inactive); that for `COc1ccc2c(c1)[C@H]1[C@H](CO2)[C@H](c2ccccc2)[C@]2(C)C(=O)Nc3ccc(C)cc3C(=O)N12`, > 42 µM (inactive).

Take `COc1ccc(NC(=O)C(c2ccccc2)N2CCN(c3ccccn3)CC2)cc1Cl` (centres undefined): the AC50 was > 42 µM (inactive). The result for `O=C(NCc1cccnc1)Nc1ccccc1` reads > 42 µM (inactive). To `CC(C)(C)Cc1nc(-c2ccccn2)no1` belongs > 42 µM (inactive). Turning to `Cc1c(C)c2c(c(C)c1O)CCC(C)(C(=O)O)O2` (centres undefined), the AC50 was > 42 µM (inactive). In the case of `COc1cc(C)c(Cl)c(C)c1S(=O)(=O)NCc1ccc2c(c1)OCO2`, the AC50 was > 42 µM (inactive). The result for `COc1ccc(C2=NN(C(=S)Nc3ccccc3)C(c3ccccc3)C2)cc1` (centres undefined) reads > 42 µM (inactive). The result for `O=C(N/N=C/c1ccccc1)c1[nH]c2ccc(Br)cc2c1-c1ccccc1` reads > 42 µM (inactive). To `CCN1CCN(CC(=O)Nc2cccc(C)c2C)C(=O)C1=O` belongs > 42 µM (inactive). For the molecule `Cc1cc(/C=C2\C(=O)NC(=O)N(c3ccccc3F)C2=O)c(C)n1-c1cc(C(=O)O)cc(C(=O)O)c1`, the AC50 was > 42 µM (inactive). The result for `Cc1ccccc1Cn1cc(NC(=O)c2cc3nc(-c4ccco4)cc(C(F)(F)F)n3n2)cn1` reads > 42 µM (inactive); that for `Cc1ccccc1NC1=NCCCS1`, > 42 µM (inactive); that for `CN(C(=O)COc1cc(=O)n(C)c2ccccc12)c1ccc(Cl)cc1`, > 42 µM (inactive). The result for `Fc1ccc(-c2nnc3ccc(N4CCCC4)nn23)cc1` reads > 42 µM (inactive); that for `CCOc1cc(NC(=O)c2cccs2)c(OCC)cc1NC(=O)CCC(=O)NCCN1CCOCC1`, > 42 µM (inactive); that for `COc1ccccc1NC(=S)N(Cc1ccccc1)Cc1cccs1`, > 42 µM (inactive). The result for `CCn1c(SCC(N)=O)nnc1-c1cc2c(C)nn(-c3ccccc3)c2s1` reads > 42 µM (inactive); that for `COC(=O)C1(Cc2ccc(O)cc2)OC(=O)C(O)=C1c1ccc(O)cc1` (centres undefined), > 42 µM (inactive); that for `COC(=O)c1cccc(NC(=O)c2cccnc2)c1`, > 42 µM (inactive). Turning to `Cc1cccn2c(=O)c3cc(C(=O)NCc4cccnc4)c(=N)n(C(C)C)c3nc12`, the AC50 is > 42 µM (inactive). To `Nc1ncnc2nc(SCC(=O)N3CCN(c4ccccc4)CC3)[nH]c12` belongs > 42 µM (inactive); to `Cc1csc(CNc2ncnc3ccc(-c4ccccc4Cl)cc23)c1`, > 42 µM (inactive).

Turning to `CC[C@H]1CCCCc2ccccc2[C@@H](C(=O)C[C@@H](O)CC(C)=O)OC1=O`, the AC50 was > 42 µM (inactive).

As to `COc1ccc(Cc2nnc(NCCO)[nH]c2=O)cc1`, the AC50 is > 42 µM (inactive). To `CNC(=O)COC(=O)c1cc(-c2ccco2)nc2ccccc12` belongs > 42 µM (inactive). To `CCc1cc2c(NCCO)ncnc2s1` belongs > 42 µM (inactive); to `CCOc1ccc(NC(=O)CNc2ccc(C)cc2Cl)cc1`, > 42 µM (inactive); to `COc1cccc(OC)c1C(=O)N1CCN(Cc2ccccc2C)CC1`, > 42 µM (inactive). `COc1ccc(NC(=O)CSc2nnc(-c3ccccn3)n2-c2ccccc2)cc1OC`: the AC50 is > 42 µM (inactive).

Consider `COc1ccc(C2C3=C(CC(C)(C)CC3=O)Nc3n[nH]c(C)c32)cc1` (centres undefined), for which the AC50 is > 42 µM (inactive). The result for `CC1(C)C=C(c2ccc(O)cc2)CC(C)(C)N1` reads > 42 µM (inactive); that for `C[C@@]12C(=O)Nc3cc(Cl)ccc3C(=O)N1[C@H]1c3ccccc3OC[C@@H]1[C@@H]2c1ccccc1`, > 42 µM (inactive); that for `CCC(C)NCCCCOc1cc(C)cc(C(C)C)c1` (centres undefined), > 42 µM (inactive). For `O=C(O)CCC(=O)Nc1cccc(C(=O)Nc2ccc(Br)cc2)c1`, the AC50 is > 42 µM (inactive).

Regarding `CCS(=O)c1ccccc1C(=O)O` (centres undefined), the AC50 is > 42 µM (inactive). The result for `CCc1ccc2[nH]c(=O)c(C(c3nnnn3Cc3ccccc3)N3CCOCC3)cc2c1` (centres undefined) reads > 42 µM (inactive); that for `COc1ccccc1NC(=O)c1nn(-c2cccc(C(F)(F)F)c2)ccc1=O`, 12 µM. To `CSCC[C@H](NC(=O)CC(C)(C)C)c1nc2ccccc2[nH]1` belongs > 42 µM (inactive); to `CCOc1ccc(C)cc1S(=O)(=O)n1nc(C)cc1C`, > 42 µM (inactive). For `COC(=O)c1ccc(/C=N/NC(=O)C(=O)NCC2CCCO2)cc1` (centres undefined), the AC50 is > 42 µM (inactive).
